# In article PMC9229919, “4-Aminoquinoline-Based Adamantanes as Potential Anticholinesterase Agents in Symptomatic Treatment of Alzheimer’s Disease” (Pharmaceutics, 2022):
# Where two headings read alike, the source gives them in different places.
# Columns and labels:
# [1] = Reverse-phase thin-layer chromatographic lipophilicity (RF, RM0); type: physicochemical; conditions: for RM0: intercept of RM = RM0 + bC; for b: slope of RM = RM0 + bC; for RF, Methanol/Water/Hydrochloric acid (conc.), mobile phase I / RF, Dioxane/Water/Hydrochloric acid (conc.), mobile phase II / RF, Methanol/Water/Hydrochloric acid (conc.), mobile phase II / RF, Acetone/Water/Hydrochloric acid (conc.), mobile phase III / RF, Dioxane/Water/Hydrochloric acid (conc.), mobile phase III / RF, Methanol/Water/Hydrochloric acid (conc.), mobile phase III / RF, Dioxane/Water/Hydrochloric acid (conc.), mobile phase IV / RF, Acetone/Water/Hydrochloric acid (conc.), mobile phase IV / RF, Methanol/Water/Hydrochloric acid (conc.), mobile phase IV / RF, Acetone/Water/Hydrochloric acid (conc.), mobile phase IX / RF, Methanol/Water/Hydrochloric acid (conc.), mobile phase IX / RF, Dioxane/Water/Hydrochloric acid (conc.), mobile phase V / RF, Acetone/Water/Hydrochloric acid (conc.), mobile phase V / RF, Methanol/Water/Hydrochloric acid (conc.), mobile phase V / RF, Dioxane/Water/Hydrochloric acid (conc.), mobile phase VI / RF, Acetone/Water/Hydrochloric acid (conc.), mobile phase VI / RF, Methanol/Water/Hydrochloric acid (conc.), mobile phase VI / RF, Acetone/Water/Hydrochloric acid (conc.), mobile phase VII / RF, Methanol/Water/Hydrochloric acid (conc.), mobile phase VII / RF, Acetone/Water/Hydrochloric acid (conc.), mobile phase VIII / RF, Methanol/Water/Hydrochloric acid (conc.), mobile phase VIII: RP-18 silica; for RF, Methanol/Water/Hydrochloric acid (conc.), mobile phase I: I = 90%MeOH/5%H2O/5%HCl; for RF, Dioxane/Water/Hydrochloric acid (conc.), mobile phase II: II = 80%Dioxane/15%H2O/5%HCl; for RF, Methanol/Water/Hydrochloric acid (conc.), mobile phase II: II = 85%MeOH/10%H2O/5%HCl; for RF, Acetone/Water/Hydrochloric acid (conc.), mobile phase III: III = 70%AC/25%H2O/5%HCl; for RF, Dioxane/Water/Hydrochloric acid (conc.), mobile phase III: III = 70%Dioxane/25%H2O/5%HCl; for RF, Methanol/Water/Hydrochloric acid (conc.), mobile phase III: III = 80%MeOH/15%H2O/5%HCl; for RF, Dioxane/Water/Hydrochloric acid (conc.), mobile phase IV: IV = 60%Dioxane/35%H2O/5%HCl; for RF, Acetone/Water/Hydrochloric acid (conc.), mobile phase IV: IV = 65%AC/30%H2O/5%HCl; for RF, Methanol/Water/Hydrochloric acid (conc.), mobile phase IV: IV = 75%MeOH/20%H2O/5%HCl; for RF, Acetone/Water/Hydrochloric acid (conc.), mobile phase IX: IX = 40%AC/55%H2O/5%HCl; for RF, Methanol/Water/Hydrochloric acid (conc.), mobile phase IX: IX = 50%MeOH/45%H2O/5%HCl; for RF, Dioxane/Water/Hydrochloric acid (conc.), mobile phase V: V = 50%Dioxane/45%H2O/5%HCl; for RF, Acetone/Water/Hydrochloric acid (conc.), mobile phase V: V = 60%AC/35%H2O/5%HCl; for RF, Methanol/Water/Hydrochloric acid (conc.), mobile phase V: V = 70%MeOH/25%H2O/5%HCl; for RF, Dioxane/Water/Hydrochloric acid (conc.), mobile phase VI: VI = 40%Dioxane/55%H2O/5%HCl; for RF, Acetone/Water/Hydrochloric acid (conc.), mobile phase VI: VI = 55%AC/40%H2O/5%HCl; for RF, Methanol/Water/Hydrochloric acid (conc.), mobile phase VI: VI = 65%MeOH/30%H2O/5%HCl; for RF, Acetone/Water/Hydrochloric acid (conc.), mobile phase VII: VII = 50%AC/45%H2O/5%HCl; for RF, Methanol/Water/Hydrochloric acid (conc.), mobile phase VII: VII = 60%MeOH/35%H2O/5%HCl; for RF, Acetone/Water/Hydrochloric acid (conc.), mobile phase VIII: VIII = 45%AC/50%H2O/5%HCl; for RF, Methanol/Water/Hydrochloric acid (conc.), mobile phase VIII: VIII = 55%MeOH/40%H2O/5%HCl
# Outline: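 Reverse-phase TLC using mobile phases of methanol, acetone or dioxane with water and hydrochloric acid. Methanol varied in 10% steps; development distance 4.5 cm, ambient temperature (22±2 °C). RF measured and RM0 derived from retention.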
# [2] = Ferric reducing antioxidant power (FRAP) assay; conditions: for FRAP: mean ± standard error of three experiments;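 as to FRAP: expressed as µM Fe2+ equivalents from an FeSO4·7H2O standard curve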
# Outline: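 Compounds at 10 and 100 µM were mixed with FRAP reagent (300 mM acetate buffer pH 3.6, TPTZ in HCl, FeCl3, 10:1:1) and incubated 60 min at 37 °C. Fe^2+-TPTZ formation read at 593 nm against a blank. Values derived from an Fe2SO4·7H2O standard curve, three independent experiments.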
# recombinant human AChE = target: T1, recombinant human AChE (Homo sapiens, UniProt P22303); test: biochemical; type: biochemical; conditions: for IS: IS = Ki(BChE)/Ki(AChE), IS > 1 selective to AChE
# T1 construct: gift of Dr Florian Nachon (Armed Forces Biomedical Research Institute, Brétigny-sur-Orge, France)
# Outline: (§1)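 Modified Ellman assay with acetylthiocholine and DTNB in 0.1 M sodium phosphate pH 7.4 (enzymes diluted with 0.1% BSA), ≤0.2% DMSO, 25 °C. At least three inhibitor concentrations per substrate level; Ki,app from Hunter–Downs equation, Ki from y-intercept and inhibition type from Ki,app vs [S].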
# purified human BChE = target: T2, purified human BChE (Homo sapiens, UniProt P06276); test: biochemical; type: biochemical
# T2 construct: possibly also a gift of Dr Florian Nachon (the sentence is ambiguous)
# Outline: as §1
# [3] = Acetone/Water/Hydrochloric acid (conc.)
# [4] = Dioxane/Water/Hydrochloric acid (conc.)
# [5] = Methanol/Water/Hydrochloric acid (conc.)
# [6] = log (Ki/µM AChE), read-out: Y Measured 1 log(ki)Ache (converted)
# [7] = ± standard error, 25 °C, ATCh substrate, read-out: Ki AChE
# [8] = logarithm of Ki in µM, BChE, dependent variable of the QSAR model, read-out: Y Measured 2 log(ki)Bche, log (Ki/µM BChE) (converted)
# [9] = ± standard error, 25 °C, ATCh substrate, read-out: Ki BChE
# T2 sequence (P06276 29-602): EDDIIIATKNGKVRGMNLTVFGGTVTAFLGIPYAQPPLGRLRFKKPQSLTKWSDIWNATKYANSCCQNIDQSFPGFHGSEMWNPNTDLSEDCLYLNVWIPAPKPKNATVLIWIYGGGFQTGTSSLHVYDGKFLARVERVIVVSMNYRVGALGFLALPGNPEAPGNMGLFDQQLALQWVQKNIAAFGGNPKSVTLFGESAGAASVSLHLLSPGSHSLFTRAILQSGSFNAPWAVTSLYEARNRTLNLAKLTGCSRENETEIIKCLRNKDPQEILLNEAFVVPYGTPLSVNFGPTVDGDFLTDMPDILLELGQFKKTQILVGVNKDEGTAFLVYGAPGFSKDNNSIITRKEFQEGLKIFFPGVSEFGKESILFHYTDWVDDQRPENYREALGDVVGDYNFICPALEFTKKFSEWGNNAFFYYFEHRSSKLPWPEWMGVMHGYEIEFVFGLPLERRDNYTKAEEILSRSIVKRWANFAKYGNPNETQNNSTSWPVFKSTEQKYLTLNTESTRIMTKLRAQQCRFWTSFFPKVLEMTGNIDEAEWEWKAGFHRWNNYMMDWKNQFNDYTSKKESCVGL
# T1 sequence (P22303 32-614): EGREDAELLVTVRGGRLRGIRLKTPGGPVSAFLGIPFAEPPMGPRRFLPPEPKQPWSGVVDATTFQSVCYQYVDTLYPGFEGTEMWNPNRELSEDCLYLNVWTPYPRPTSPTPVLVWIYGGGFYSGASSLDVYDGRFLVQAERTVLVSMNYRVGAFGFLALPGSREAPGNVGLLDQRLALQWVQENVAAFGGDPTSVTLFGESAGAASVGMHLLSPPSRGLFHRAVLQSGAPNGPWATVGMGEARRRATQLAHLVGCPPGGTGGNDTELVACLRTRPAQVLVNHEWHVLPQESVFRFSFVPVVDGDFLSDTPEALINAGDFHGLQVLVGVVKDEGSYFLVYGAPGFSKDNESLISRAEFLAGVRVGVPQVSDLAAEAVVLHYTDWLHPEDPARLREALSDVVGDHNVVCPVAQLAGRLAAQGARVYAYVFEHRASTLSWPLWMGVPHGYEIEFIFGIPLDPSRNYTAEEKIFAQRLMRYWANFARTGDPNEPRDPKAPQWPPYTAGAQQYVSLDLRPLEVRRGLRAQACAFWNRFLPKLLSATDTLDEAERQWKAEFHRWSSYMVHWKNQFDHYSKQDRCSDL
SMILES,"RM0 [1, 3]","b [1, 3]","RM0 [1, 4]","b [1, 4]","RM0 [1, 5]","b [1, 5]","RF, Methanol/Water/Hydrochloric acid (conc.), mobile phase I [1]","RF, Dioxane/Water/Hydrochloric acid (conc.), mobile phase II [1]","RF, Methanol/Water/Hydrochloric acid (conc.), mobile phase II [1]","RF, Acetone/Water/Hydrochloric acid (conc.), mobile phase III [1]","RF, Dioxane/Water/Hydrochloric acid (conc.), mobile phase III [1]","RF, Methanol/Water/Hydrochloric acid (conc.), mobile phase III [1]","RF, Dioxane/Water/Hydrochloric acid (conc.), mobile phase IV [1]","RF, Acetone/Water/Hydrochloric acid (conc.), mobile phase IV [1]","RF, Methanol/Water/Hydrochloric acid (conc.), mobile phase IV [1]","RF, Acetone/Water/Hydrochloric acid (conc.), mobile phase IX [1]","RF, Methanol/Water/Hydrochloric acid (conc.), mobile phase IX [1]","RF, Dioxane/Water/Hydrochloric acid (conc.), mobile phase V [1]","RF, Acetone/Water/Hydrochloric acid (conc.), mobile phase V [1]","RF, Methanol/Water/Hydrochloric acid (conc.), mobile phase V [1]",other results
CC(CCNCCC12CC3CC(CC(C3)C1)C2)Nc1ccnc2ccccc12 (stereo not shown) [Compound 16],1.94,3.086,0.9042,1.814,2.5841,3.345,0.7,0.74,0.64,0.59,0.7,0.51,0.7,0.54,0.5,0.12,0.09,0.5,0.44,0.42,"RF, Dioxane/Water/Hydrochloric acid (conc.), mobile phase VI [1]: 0.35; RF, Acetone/Water/Hydrochloric acid (conc.), mobile phase VI [1]: 0.39; RF, Methanol/Water/Hydrochloric acid (conc.), mobile phase VI [1]: 0.31; RF, Acetone/Water/Hydrochloric acid (conc.), mobile phase VII [1]: 0.33; RF, Methanol/Water/Hydrochloric acid (conc.), mobile phase VII [1]: 0.21; RF, Acetone/Water/Hydrochloric acid (conc.), mobile phase VIII [1]: 0.26; RF, Methanol/Water/Hydrochloric acid (conc.), mobile phase VIII [1]: 0.15; FRAP ([2]; 10 µM compound): 4.1 ± 0.4 µM; FRAP ([2]; 100 µM compound): 46 ± 4 µM; IS (recombinant human AChE): 0.7; Ki (recombinant human AChE; [6]): 0.52 µM; Ki (recombinant human AChE; [7]): 0.52 ± 0.02 µM; Ki (purified human BChE; [8]): 0.38 µM; Ki (purified human BChE; [9]): 0.38 ± 0.03 µM"
Clc1ccc2c(Nc3ccc(NCC45CC6CC(CC(C6)C4)C5)cc3)ccnc2c1 [Compound 17],2.018,3.21,0.9452,1.898,2.643,3.504,0.73,0.75,0.69,0.59,0.71,0.54,0.71,0.54,0.53,0.11,0.09,0.49,0.44,0.45,"RF, Dioxane/Water/Hydrochloric acid (conc.), mobile phase VI [1]: 0.35; RF, Acetone/Water/Hydrochloric acid (conc.), mobile phase VI [1]: 0.39; RF, Methanol/Water/Hydrochloric acid (conc.), mobile phase VI [1]: 0.35; RF, Acetone/Water/Hydrochloric acid (conc.), mobile phase VII [1]: 0.33; RF, Methanol/Water/Hydrochloric acid (conc.), mobile phase VII [1]: 0.24; RF, Acetone/Water/Hydrochloric acid (conc.), mobile phase VIII [1]: 0.25; RF, Methanol/Water/Hydrochloric acid (conc.), mobile phase VIII [1]: 0.15; FRAP ([2]; 10 µM compound): 53 ± 4 µM; FRAP ([2]; 100 µM compound): 512 ± 117 µM; antioxidant power lower than that of Trolox ([2]; on average): ~10 times; IS (recombinant human AChE): 0.8; Ki (recombinant human AChE; [6]): 3.3 µM; Ki (recombinant human AChE; [7]): 3.3 ± 0.4 µM; decrease in BChE inhibition vs compound 5 (purified human BChE): up to 275 times; Ki (purified human BChE; [8]): 2.5 µM; Ki (purified human BChE; [9]): 2.5 ± 0.5 µM"
